This passage reports IC50 results from ChEMBL document CHEMBL3351442, “Synthesis and antiproliferative evaluation of 2-hydroxylated (E)-stilbenes” (Bioorg Med Chem Lett, 2014).

For orientation: IC50 means the concentration needed to halve the response being measured.

Holding throughout (assay type): functional, cell-based
Test [1] in a line: Antiproliferative activity against human MDA468 cells by MTT assay. To be noted: MDA-MB-468. (Tetrazolium assays rely on reduction of a dye to a coloured formazan, in cell work by metabolically active cells.)
Another test deals with MGC-803. The experiment in a line: Antiproliferative activity against human MGC803 cells by MTT assay.
Test [2] in a line: Antiproliferative activity against human COLO205 cells by MTT assay. The conditions noted are these: COLO 205.
A further test deals with HT-29. The experiment in a line: Antiproliferative activity against human HT-29 cells by MTT assay.

With `COc1cccc(/C=C\c2cc(OC)c(OC)c(OC)c2)c1O`, the results for the IC50 (in test [1]; with MGC-803) were 2.6 µM and 1.1 µM, respectively.

Consider `Oc1ccccc1/C=C/c1ccc(Br)cc1`, for which the values for the IC50 (in test [2]; in test [1]; in the test on HT-29) were 21.1 µM, 7.4 µM and 14.4 µM, respectively.

In test [1], `Oc1ccccc1/C=C/c1ccccc1` registered a 50% inhibitory concentration (IC50) of 19.3 µM.

With `COc1ccc(/C=C/c2cc(OC)c(OC)c(OC)c2)c(O)c1`, the IC50 is 5.3 µM in test [2], 5.3 µM in test [1], 9.7 µM in the test on HT-29 and 0.035 µM in the test on MGC-803.

In the test on MGC-803, `N#Cc1ccc(/C=C/c2ccccc2O)cc1` had an IC50 of 3.1 µM.

For the compound `COc1cc(/C=C/c2ccccc2O)cc(OC)c1`, the IC50 in test [1] was 12.6 µM; in the test on HT-29 it was 26.2 µM; in the test on MGC-803, 6.3 µM.

As to `COc1ccc(/C=C/c2cc(Br)ccc2O)c(OC)c1`, the concentration for half-maximal inhibition (IC50) in test [1] came to 3.7 µM; with HT-29, 10 µM; in the test on MGC-803, 3.5 µM.

`COc1ccc(/C=C/c2cccc(OC)c2O)cc1` had an IC50 in test [2] of 20.2 µM.

Regarding `Oc1ccc(/C=C/c2cc(O)cc(O)c2)cc1` [RESVERATROL], the IC50 in test [2] was found to be 23.5 µM; in test [1], 45.2 µM; in the test on HT-29, 87.2 µM; in the test with MGC-803, 42 µM.

In test [1], `COc1ccc(/C=C/c2cccc(OC)c2O)c(OC)c1` registered an IC50 of 5.1 µM.

In the test with HT-29, `Oc1ccc(/C=C/c2ccccc2O)cc1` yielded an IC50 of 33.5 µM. This lies in the double-digit micromolar range.

As to `COc1cc(/C=C/c2cc([N+](=O)[O-])ccc2O)cc(OC)c1`, the IC50 in the test on HT-29 stood at 12.6 µM; in the test with MGC-803, 10.6 µM.

Turning to `COc1cc(/C=C/c2cc([N+](=O)[O-])ccc2O)cc(OC)c1OC`, in the test with MGC-803, half-maximal inhibition (IC50) required 14.7 µM.

Regarding `COc1cc(/C=C/c2cc(Br)ccc2O)cc(OC)c1OC`, the IC50 in test [1] came to 14.2 µM; in the test on HT-29, 18.5 µM; with MGC-803, 4.5 µM.

For `COc1cccc(/C=C/c2ccc(O)cc2)c1O`, the IC50 in test [1] amounted to 6.9 µM.

Take `Oc1ccc(/C=C/c2cc(Br)ccc2O)cc1`: the IC50 was 3.5 µM in test [1] and 26.7 µM in the test on HT-29.

With `COc1cc(/C=C/c2cc(Br)ccc2O)cc(OC)c1`, the half-inhibitory concentration (IC50) in test [2] was determined as 16.4 µM; in test [1], 6.1 µM; in the test on HT-29 it was 9.5 µM; in the test with MGC-803 it was 3.3 µM.

As to `Cc1cc(C)cc(/C=C/c2cc(Br)ccc2O)c1`, the IC50 in test [1] was determined as 7.2 µM; in the test on HT-29, 13.3 µM; in the test with MGC-803, 5 µM.

`Cc1ccc(/C=C/c2ccccc2O)cc1`: the figures for the half-maximal inhibitory concentration (IC50) (in test [1]; in the test with HT-29) were 21.9 µM and 22.9 µM, respectively.

The compound `Oc1cc(O)cc(/C=C/c2ccccc2O)c1` had a 50% inhibitory concentration (IC50) in the test with HT-29 of 26.2 µM.
